The text below walks through data of patent US20100197599A1, “USE OF A PEPTIDE AS A THERAPEUTIC AGENT” (priority 2007, published 2010).

The test system of one experiment is HIV-1IIIB. Kind of experiment: HIV-1 antiviral assay in CEM-SS cells (MTS readout). The note with it: positive controls.
Another experiment concerns Human A549 cells. Kind of experiment: Apoptosis prevention assay (C2 ceramide, Annexin-5). Format: cell-based. The following applies: 10 micrograms per ml pretreatment 30 min.
Experiment [1] deals with Tumor Necrosis Factor-α (TNF-α). Description: Th1/Th2 cytokine profiling assay, TNF-α. The note with it: murine spleen cells, 10 micrograms per ml; for change of the production of TNF-alpha: Ovalbumin restimulation, 72 hours.
Excerpt: (§1) The Balb/c mice (originated in 1923, it is a popular strain and is used in many different research disciplines. Also classified as an inbred from the production of 20 or more successive brother-sister matings, the Balb/c mouse is albino and small in size) were immunized on Days 1, 15, and 29 with Ovalbumin (Ovalbumin is the main protein found in egg white, commonly used to stimulate an immunological reaction in test animals) in PBS (5 micrograms/injection). On day 50, spleens of the mice were harvested (3 weeks after last boost with Ovalbumin). […] Thereafter, additional Ovalbumin was added to the cells at 10 micrograms/ml for in vitro restimulation of the cells. 72 hours later, cell supernatants were harvested and assayed using the Becton Dickinson Mouse Th1/Th2 Cytokine CBA Kit. This kit can be used to measure Interleukin-2 (IL-2), Interleukin-4 (IL-4), Interleukin-5 (IL-5), Interferon-γ (IFN-γ), and Tumor Necrosis Factor-α (TNF-α) protein levels in a single sample.
A further experiment has as its system RAW 264.7 cells. Kind of experiment: Phagocytosis assay (Fluorescein-labeled Escherichia coli, flow cytometry). Format: cell-based, Mouse. The following applies: 10 micrograms per ml, Fluorescein-labeled E. coli. The protocol: RAW 264.7 (Mouse leukaemic monocyte macrophage cell line) cells were obtained from ATCC and grown in RPMI 1640 medium containing 10% FBS. […] After the cells were incubated for additional 60 min at 37° C. and allowed to ingest the Fluorescein-labeled Escherichia coli bacteria, cells were fixed with 1% paraformaldehyde. The samples were then analyzed by flow cytometry to determine the amount of phagocytosis as a function of brightness (the greater the phagocytic activity, the more fluorescence in the macrophage population). Data are reported as % positive and the mean fluorescence intensity (MFI) of positively stained cells.

Experiment [2] concerns hepatitis B virus (HBV) ayw strain. Kind of experiment: HBV assay in HepG2-2.2.15 cells (secreted HBV DNA, TaqMan PCR). In kind it is cell-based. The note with it: HepG2-2.2.15 liver cells, 10 micrograms per ml, six days.
The test system of experiment [3] is Primary Human endothelial cells (HUVEC). Description: Endothelial cell migration assay. The following applies: 10 micrograms per ml, 22 hours. In kind it is cell-based. The protocol:
Thereafter, designated concentration of testing peptides—10 micrograms per ml—was added in duplicate wells.

A further experiment concerns HCMV strain AD169. Kind of experiment: HCMV plaque formation assay in MRC-5 cells. The note with it: for inhibition of HCMV plaque formation as compared to the virus control experiment: 10 micrograms per ml, 7-10 days.
The next experiment has as its system Interleukin-4 (IL-4). Kind of experiment: Th1/Th2 cytokine profiling assay, IL-4. The note with it: murine spleen cells, 10 micrograms per ml.
The test system of another experiment is HUVEC. Description: Endothelial tube formation assay. Format: cell-based, human. The following applies: 10 micrograms per ml, 20 hours. An excerpt:
Positive control was vehicle only.

For another experiment, the system named is Interferon-γ (IFN-γ). Description: Th1/Th2 cytokine profiling assay, IFN-γ. The note with it: murine spleen cells, 10 micrograms per ml; for induction of the production of IFN-γ: Ovalbumin restimulation, 72 hours.
The test system of another experiment is Interleukin-5 (IL-5). Description: Th1/Th2 cytokine profiling assay, IL-5. The note with it: murine spleen cells, 10 micrograms per ml.
Another experiment has as its system Interleukin-2 (IL-2). Description: Th1/Th2 cytokine profiling assay, IL-2. The note with it: murine spleen cells, 10 micrograms per ml.
Setting [4] is: Ovalbumin restimulation, 72 hours.

No end group written: not given here.

Excerpt for Interferon-γ (IFN-γ): as §1
Excerpt for Interleukin-2 (IL-2): (§2) The Balb/c mice (originated in 1923, it is a popular strain and is used in many different research disciplines. Also classified as an inbred from the production of 20 or more successive brother-sister matings, the Balb/c mouse is albino and small in size) were immunized on Days 1, 15, and 29 with Ovalbumin (Ovalbumin is the main protein found in egg white, commonly used to stimulate an immunological reaction in test animals) in PBS (5 micrograms/injection). On day 50, spleens of the mice were harvested (3 weeks after last boost with Ovalbumin). […] Thereafter, additional Ovalbumin was added to the cells at 10 micrograms/ml for in vitro restimulation of the cells. 72 hours later, cell supernatants were harvested and assayed using the Becton Dickinson Mouse Th1/Th2 Cytokine CBA Kit. This kit can be used to measure Interleukin-2 (IL-2), Interleukin-4 (IL-4), Interleukin-5 (IL-5), Interferon-γ (IFN-γ), and Tumor Necrosis Factor-α (TNF-α) protein levels in a single sample. The kit performance has been optimized for analysis of physiologically relevant concentrations (μg/ml levels) of specific cytokine proteins in tissue culture supernatants and serum samples.
Excerpt for Interleukin-4 (IL-4): as §2
Excerpt for Interleukin-5 (IL-5): as §2

On to `Cc1cn([C@H]2C[C@H](N=[N+]=[N-])[C@@H](CO)O2)c(=O)[nH]c1=O` [AZT], for which the “antiviral activity of positive control compounds” value in the experiment on HIV-1IIIB is “expected levels of antiviral activity”.
Take “Tyr-Gly-Gly-Phe-Leu-Arg-Lys-Tyr-Pro-Lys-OH (YGGFLRKYPK-OH) [peptide 2]”: the “reduction of the ceramide-induced apoptosis on human lung cells” value with Human A549 cells was determined as 17.9%. In experiment [1], the “TNF-a spleen cells; TH1 response (% of control)” value is 101.0 % of control and the “change of the production of TNF-alpha” value was “did not significantly change”. Besides, the “induction of phagocytosis as compared to the control experiment” value in the experiment with RAW 264.7 cells came to 54.3%. In addition, the “inhibition of HBV replication as compared to the virus control infection” value in experiment [2] is “no effect”. Further, the “induction of the migration of human endothelial cells” value in [3] came out at 11%. The “inhibition of HCMV plaque formation as compared to the virus control experiment” value with HCMV strain AD169 is given as 6.9%. The “IL-4 spleen cells; TH2 response (% of control)” value in the experiment on Interleukin-4 (IL-4) is reported as 170.6 % of control. Also, in the experiment on Interleukin-4 (IL-4) (setting [4]), the “induction of the production of IL-4” value is 70.6%. Moreover, the “inhibition of the tube formation of human endothelial cells” value with HUVEC came to 5%. In the experiment with Interferon-γ (IFN-γ), the “IFNγ spleen cells; TH1 response (% of control)” value is recorded as 130.3 % of control and the “induction of the production of IFN-γ” value turned out to be 30.3%. Besides, the “IL-5 spleen cells; TH2 response (% of control)” value in the experiment with Interleukin-5 (IL-5) is given as 67.5 % of control. Also, the “change of the production of IL-5” value with Interleukin-5 (IL-5) (setting [4]) is “did not significantly change”. Also, the “IL-2 spleen cells (% of control)” value with Interleukin-2 (IL-2) was 141.5 % of control. Further, in the experiment with Interleukin-2 (IL-2) (setting [4]), the “induction of the production of IL-2” value is listed as 41.5%.
For the compound “Met-Ala-Pro-Arg-Gly-Phe-Ser-Cys-Leu-Leu-Leu-Leu-Thr-Ser-Glu-Ile-Asp-Leu-Pro-Val-Lys-Arg-Arg-Ala-OH (MAPRGFSCLLLLTSEIDLPVKRRA-OH) [peptide 1]”, the “reduction of the ceramide-induced apoptosis on human lung cells” value in the experiment on Human A549 cells was found to be 10.7%. Besides, in [1], the “TNF-a spleen cells; TH1 response (% of control)” value is recorded as 104.2 % of control and the “change of the production of TNF-alpha” value was “did not significantly change”. Further, in the experiment with RAW 264.7 cells, the “induction of phagocytosis as compared to the control experiment” value is given as 94.3%. For the same compound, the “inhibition of HBV replication as compared to the virus control infection” value in experiment [2] turned out to be 3.9%. Further, the “inhibition of the migration of human endothelial cells” value in experiment [3] is 3%. The “inhibition of HCMV plaque formation as compared to the virus control experiment” value with HCMV strain AD169 stood at 3.2%. For the same compound, the “IL-4 spleen cells; TH2 response (% of control)” value with Interleukin-4 (IL-4) was 75.1 % of control. Besides, the “change of the production of IL-4” value with Interleukin-4 (IL-4) (setting [4]) is recorded as “did not significantly change”. Moreover, the “induction of the tube formation of human endothelial cells” value with HUVEC was found to be 23%. For the same compound, in the experiment on Interferon-γ (IFN-γ), the “IFNγ spleen cells; TH1 response (% of control)” value was 122.3 % of control and the “induction of the production of IFN-γ” value was 22.3%. For the same compound, the “IL-5 spleen cells; TH2 response (% of control)” value in the experiment with Interleukin-5 (IL-5) is 63.5 % of control. Besides, the “decrease of the production of IL-5” value in the experiment with Interleukin-5 (IL-5) (setting [4]) was determined as 36.5%. Also, the “IL-2 spleen cells (% of control)” value with Interleukin-2 (IL-2) is given as 50.6 % of control. Besides, the “decrease of the production of IL-2” value with Interleukin-2 (IL-2) (setting [4]) is reported as 49.4%.
`CC(C)(C)NC(=O)[C@@H]1CN(Cc2cccnc2)CCN1C[C@@H](O)C[C@@H](Cc1ccccc1)C(=O)N[C@H]1c2ccccc2C[C@H]1O` [indinavir]: the “antiviral activity of positive control compounds” value in the experiment on HIV-1IIIB is reported as “expected levels of antiviral activity”.
Consider `Nc1nc(O)c2ncn(COC(CO)CO)c2n1` [Ganciclovir, reference compound], for which, in the experiment with HCMV strain AD169 (HCMV AD169, positive control), the “antiviral activity of positive control compound” value is given as “expected levels of antiviral activity”.
